The molecules below were run against Plasma kallikrein (Homo sapiens, UniProt P03952) (assay: In Vitro Enzyme Inhibition: A 10 mM solution of the test compound was made in DMSO. This solution was serially diluted 1:5 in DMSO to yield 2000, 400, 80, 16, 3.2, 0.64, 0.128, 0.0256 and 0.00512 μM compound test solutions. A control tube containing only DMSO is included. 16 μL of each compound test solution was combined with 384 μL of assay buffer (50 mM Tris-HCl pH 7.5, 150 mM NaCl, 0.01% Triton X-100) to yield a “4× test compound buffer stock”.Separately, a 40 nM solution of human Plasma Kallikrein (Abcam) and a 93.6 μM solution Pro-Phe-Arg-AMC (Bachem) were made using assay buffer. These solutions are hereby referred to as 4×hPK and 2×PFR-AMC, respectively.60 μL of each 4× test compound buffer stock was combined with 60 μL of 4×hPK to yield 120 μL of “2× test compound buffer stock/2×hPK”. 50 μL was removed from this mixture and placed into duplicate wells on a Microfluor 1Black U-bottom microtiter plate (Thermo Scientific). This plate was incubated for 5 minutes at 37° C. To each well, 50 μL of pre-warmed 2×PFR-AMC was added to start the enzymatic reaction. Cleavage of PFR-AMC was monitored in a Biotek Synergy H4 reader set at 37° C. Readings are taken every 43 seconds for 1 hour. The highest mean velocity over 20 reads (˜15 minutes) is used to calculate the IC50. The IC50 is calculated using the Gen5 (Biotek Instruments).).
Plasma kallikrein, sequence (P03952 20-390 limits assumed): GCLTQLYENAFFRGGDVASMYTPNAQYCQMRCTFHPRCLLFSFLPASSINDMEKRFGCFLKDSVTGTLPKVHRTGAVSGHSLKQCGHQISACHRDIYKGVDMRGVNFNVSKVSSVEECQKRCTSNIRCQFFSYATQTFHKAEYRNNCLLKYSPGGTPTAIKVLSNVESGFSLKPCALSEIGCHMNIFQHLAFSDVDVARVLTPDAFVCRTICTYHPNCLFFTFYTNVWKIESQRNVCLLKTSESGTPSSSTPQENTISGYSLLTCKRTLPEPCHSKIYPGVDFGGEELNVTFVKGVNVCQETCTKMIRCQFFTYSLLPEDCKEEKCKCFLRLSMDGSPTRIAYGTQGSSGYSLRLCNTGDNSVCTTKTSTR
Plasma kallikrein, sequence (P03952 391-638 limits assumed): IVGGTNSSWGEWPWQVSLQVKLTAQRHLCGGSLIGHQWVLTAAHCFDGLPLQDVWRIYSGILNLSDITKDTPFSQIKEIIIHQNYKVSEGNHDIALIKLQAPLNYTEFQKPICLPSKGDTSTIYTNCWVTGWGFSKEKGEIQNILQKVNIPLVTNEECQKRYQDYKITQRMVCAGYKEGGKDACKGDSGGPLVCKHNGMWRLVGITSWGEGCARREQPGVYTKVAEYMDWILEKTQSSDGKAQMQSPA
In the case of `Cc1cc(N)nc(C)c1CNC(=O)c1cn(Cc2ccc3ncc(Cl)cc3c2)c2cccnc12`, the IC50 is reported as < 0.1 µM.
Molecule `Cc1cc(N)nc(C)c1CNC(=O)c1cc(C(F)(F)F)n(Cc2ccc3ncc(Cl)cc3c2)n1` has an IC50 of 1 to 10 µM.
`Cc1cc(N)nc(C)c1CNC(=O)c1nn(Cc2ccc3ncc(Cl)cc3c2)nc1C(F)(F)F` was tested, and the IC50 was < 0.1 µM.
`Cc1cc(N)nc(C)c1CNC(=O)c1cn(Cc2ccc3ncc(Cl)cc3c2)c(CO)n1` was tested, and the IC50 was < 0.1 µM.
In the case of `Cc1cc(N)nc(C)c1CNC(=O)c1ccn(Cc2ccc3ncc(Cl)cc3c2)n1`, the IC50 is reported as < 0.1 µM.
